Assay results reported in patent publication US7745390B2, “Antimicrobial peptides” (priority 2005, dated 2010).
pIC50: −log10 of the molar value. Ends that are not written are not given here.

Legend:
E. coli DH5a = format: cell-based; settings: DH5a, pH 7.2
Procedure: (§1) The experiments described above characterizing the activity of granulysin peptides G1-G18 relied on counting bacterial colonies on plates. This assay is quite labor intensive and would not allow evaluation of many different compounds on a number of different microbes. Therefore, we optimized an assay in which the entire procedure could be completed in a single microtiter well. Briefly, peptides are diluted in 10 mM phosphate buffer, pH 7.2 supplemented with 0.03% LB (J. Sambrook, D. W. Russell, Molecular Cloning: A Laboratory Manual (Cold Spring Harbor Laboratory Press, New York, ed. 3, 2001) pg. A2.2, Retrieved from http://openwetware.org/wiki/LB) and 25 μl is added to microtiter wells. Bacteria (25 μl) are added (˜5×10^6 colony forming units/ml) in the same buffer. After a 3-hour incubation at 37° C., 150 μl of LB is added and the plates are incubated overnight. The OD at 600 nm is read on an ELISA plate reader. The minimum inhibitory concentration (MIC) is the lowest concentration allowing no bacterial growth. The IC50 is the concentration of peptide that results in 50% growth compared to the medium.
(§2) We now describe additional peptides and their activity. The peptides have been designed, synthesized, and have been tested for lysis of E. coli and S. typhimurium (gram negative bacteria), B. cereus (gram positive bacterium). Results are shown in Table 2 along with the amino acid sequence of the peptide. Changes from the naturally occurring sequence are underlined. In general, the desired result is lysis of bacteria at low concentration (<1 μM).
(§3) In Table 2, Columns 2-7 are the MIC and IC50 (concentration required for 50% inhibition of growth) for each organism (E. coli, Salmonella, and B. cereus). The MIC (minimum inhibitory concentration) was determined as described above, in a multiwell plate assay. […] L-isomer amino acids are designated by capital letters while D-isomer amino acids are designated by lower case letters.

B. cereus = format: cell-based; settings: pH 7.2
Procedure: as §1, §2, §3

Salmonella = format: cell-based, S. typhimurium; settings: pH 7.2
Procedure: as §1, §2, §3

Sequence | E. coli DH5a MIC (E. coli DH5a) [µM] | pIC50 (E. coli DH5a) | B. cereus MIC (B. cereus) [µM] | pIC50 (B. cereus) | pIC50 (Salmonella) | Salmonella MIC (Salmonella) [µM]
GRSLWRDVSRNFMRR [Peptide G14.13, GRSLWRDVSRNFMRR] | 5.6 | 5.73 | >10 | < 5.00 | 5.12 | >10
GRSRWRDVSRNFMRR [Peptide G14.1, GRSRWRDVSRNFMRR] | 1.37 | 6.05 | >10 | 5.12 | 5.76 | 2.8
GRSRWRDVSRRFMRR [Peptide G14.2, GRSRWRDVSRRFMRR] | 1.45 | 6.07 | 2.8 | 5.76 | 6.07 | 1.4
GSRRWRDVSRRFMRR [Peptide G14.14, GSRRWRDVSRRFMRR] | 0.17 | 6.96 | 0.35 | 6.68 | 6.68 | 0.7
KKVSKKFMKK [Peptide G11.8, KKVSKKFMKK] | >10 | < 5.00 | >10 | < 5.00 | < 5.00 | >10
KKVSKKFMKKGSKKVSKKFMKKGSKKVSKKFMKK [Peptide G11.25] | 0.15 | 7.00 | 0.15 | 7.00 | 7.00 | 0.15
KKVSKKFMKKYQSKVIQGLV [Peptide G12.9] | 1.35 | 6.31 | 5.6 | 5.45 | 6.07 | 1.4
QKSVSKAATKVSKTGKSKW [Peptide G13.9, QKSVSKAATKVSKTGKSKW] | 1.45 | 6.05 | >10 | 5.11 | < 5.00 | >10
QRAVANAATRVARTGRARWRDVARRFMRR [Peptide G8.6] | 0.7 | 6.35 | 1.5 | 6.05 | 6.37 | 0.7
QRAVARAATRVARTGRARW [Peptide G13.6, QRAVARAATRVARTGRARW] | 2.8 | 5.78 | >10 | 5.11 | 5.13 | >10
